Columns and labels:
[1] = tested on: velvetleaf; assay: Test C pre-/postemergence herbicide test; assay type: in vivo, Abutilon theophrasti; conditions: preemergence
Method in brief: (§1)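 Emerged plants at the 1- to 4-leaf stage (2–18 cm), or freshly planted seeds, received test chemicals in a non-phytotoxic solvent mixture with surfactant. Response was visually scored against controls after 12 to 14 days in the greenhouse, on a 0 (no effect) to 100 (complete control) scale.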

[2] = tested on: common (oilseed) sunflower; assay: Test C pre-/postemergence herbicide test; assay type: in vivo, Helianthus annuus; conditions: preemergence
Method in brief: as §1

[3] = tested on: barnyardgrass; assay: Test C flooded paddy test; assay type: in vivo, Echinochloa crus-galli
Method in brief: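 Greenhouse test with a 12–14 day hold after application and visual comparison with controls. Emerged plants were 1- to 4-leaf stage (2–18 cm) when sprayed postemergence, and the paddy barnyardgrass was at 2 leaves under flooded conditions. 100 = complete control.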

[4] = tested on: cocklebur; assay: Test C pre-/postemergence herbicide test; assay type: in vivo, Xanthium strumarium; conditions: preemergence
Method in brief: as §1

[5] = tested on: morningglory; assay: Test A pre-/postemergence herbicide test; assay type: in vivo, Ipomoea spp.
Method in brief: (§2)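 Both application timings were run together: directed soil spray over freshly planted seeds in sandy loam, and runoff spray onto 2–10 cm seedlings. Evaluation after ~10 days in greenhouse used a 0–100 visual scale versus untreated controls.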

[6] = tested on: lambsquarters; assay: Test C pre-/postemergence herbicide test; assay type: in vivo, Chenopodium album; conditions: preemergence
Method in brief: as §1

[7] = tested on: ducksalad; assay: Test C flooded paddy test; assay type: in vivo, Heteranthera limosa
[8] = tested on: velvetleaf; assay: Test A pre-/postemergence herbicide test; assay type: in vivo, Abutilon theophrasti
Method in brief: as §2

[9] = tested on: yellow nutsedge; assay: Test C pre-/postemergence herbicide test; assay type: in vivo, Cyperus esculentus; conditions: preemergence
Method in brief: as §1

[10] = tested on: soybean; assay: Test C pre-/postemergence herbicide test; assay type: in vivo, Glycine max; conditions: preemergence
Method in brief: as §1

[11] = tested on: goosegrass; assay: Test C pre-/postemergence herbicide test; assay type: in vivo, Eleusine indica; conditions: preemergence
Method in brief: as §1

[12] = 125 g ai/ha, scale 0 to 100 (0 no effect, 100 complete control)
[13] = 250 g ai/ha, scale of 0 to 100, 0 is no effect, 100 is complete control
[14] = 500 g ai/ha, visual rating after 12 to 14 days, scale 0 to 100 (0 no effect, 100 complete control)
[15] = 125 g ai/ha, scale 0 (no effect) to 100 (complete control), visual, 12 to 14 days
[16] = Postemergence, 500 g ai/ha, 0 to 100 scale, 0 no effect, 100 complete control
[17] = Postemergence, 2000 g ai/ha, 0 to 100 scale, 0 no effect, 100 complete control
[18] = Preemergence, 2000 g ai/ha, visual rating, 0 to 100 scale (0 no effect, 100 complete control)
[19] = preemergence, 500 g ai/ha, visual injury, 0 to 100 scale (0 no effect, 100 complete control)

## CCNC(=O)c1ccc(F)c(NC(=O)c2cc(C3(C)CC3)nn2CC)c1 [Compound 300]
[1]; 62 g ai/ha, scale 0 to 100
  Plant response rating, Velvetleaf: 5
[1]; 250 g ai/ha, scale 0-100
  Plant response rating, Velvetleaf: 5
[2]; 62 g ai/ha, scale 0 to 100
  Plant response rating, Sunflower: 0
[2]; 250 g ai/ha, scale 0-100
  Plant response rating, Sunflower: 5
[3]; 62 g ai/ha, scale 0 to 100 (0 no effect, 100 complete control)
  Barnyardgrass plant response rating: 35
[3]; [12]
  Barnyardgrass plant response rating: 50
[3]; [13]
  Barnyardgrass plant response rating: 90
[3]; [14]
  Plant response rating, Barnyardgrass: 95
[4]; 62 g ai/ha, scale 0 to 100
  Plant response rating, Cocklebur: 5
[4]; [15]
  Plant response rating, Cocklebur: 5
[4]; 250 g ai/ha, scale 0-100
  Plant response rating, Cocklebur: 5
[5]; [16]
  Morningglory plant response rating: 80
[5]; [17]
  Plant response rating, Morningglory: 95
[5]; [18]
  Morningglory plant response rating: 100
[5]; [19]
  Morningglory plant response rating: 90
[6]; 62 g ai/ha, scale 0 to 100
  Plant response rating, Lambsquarters: 100
[6]; [15]
  Plant response rating, Lambsquarters: 100
[6]; 250 g ai/ha, scale 0-100
  Plant response rating, Lambsquarters: 100
[7]; 62 g ai/ha, scale 0 to 100
  Ducksalad plant response rating: 75
[7]; [12]
  Ducksalad plant response rating: 80
[7]; [13]
  Ducksalad plant response rating: 85
[7]; [14]
  Plant response rating, Ducksalad: 90
[8]; [16]
  Velvetleaf plant response rating: 60
[8]; [17]
  Plant response rating, Velvetleaf: 80
[8]; [18]
  Velvetleaf plant response rating: 100
[8]; [19]
  Velvetleaf plant response rating: 85
[9]; 31 g ai/ha, scale 0 to 100, last section of Table C
  Plant response rating, Nutsedge, Yellow: 0
[9]; 62 g ai/ha, scale 0 to 100
  Plant response rating, Nutsedge, Yellow: 0
[9]; [15]
  Plant response rating, Nutsedge, Yellow: 20
[9]; 250 g ai/ha, scale 0-100
  Plant response rating, Nutsedge, Yellow: 60
[10]; 62 g ai/ha, scale 0 to 100
  Plant response rating, Soybean: 0
[10]; 250 g ai/ha, scale 0-100
  Plant response rating, Soybean: 70
[11]; 62 g ai/ha, scale 0 to 100
  Plant response rating, Goosegrass: 85
[11]; [15]
  Plant response rating, Goosegrass: 100
[11]; 250 g ai/ha, scale 0-100
  Plant response rating, Goosegrass: 100

From patent publication US20060069132A1, “Azolecarboxamide herbicides” (priority 2004, published 2006)
